Holding throughout (assay): AK assay 384-well format, Prestwick library screening
Assay [1] relates to A. baumannii strain 98-37-09. Format: cell-based, Acinetobacter baumannii. The settings on record: Acinetobacter baumannii, 983709, 3 h, 50 μM final drug concentration.
For the next assay, the system named is P. aeruginosa. Format: cell-based, Pseudomonas aeruginosa. The settings on record: Pseudomonas aeruginosa, 3 h, 50 μM final drug concentration.
The test system of the next assay is E. faecium. In kind it is cell-based, Enterococcus faecium. The settings on record: Enterococcus faecium, 3 h, 50 μM final drug concentration.
The test system of a further assay is E. cloacae. In kind it is cell-based, Enterobacter cloacae. The settings on record: Enterobacter cloacae, 3 h, 50 μM final drug concentration.
For a further assay, the system named is E. coli. Format: cell-based, Escherichia coli. The settings on record: Escherichia coli, 3 h, 50 μM final drug concentration.
In the next assay the test system is K. pneumoniae. In kind it is cell-based, Klebsiella pneumoniae. The following applies: Klebsiella pneumoniae, 3 h, 50 μM final drug concentration.
Assay [2] has as its system S. aureus strain USA300-0114. Format: cell-based, Staphylococcus aureus. The settings on record: Staphylococcus aureus, USA300, 3 h, 50 μM final drug concentration.

Molecules are shown by their SMILES. Structures can show the parent of a compound that is named as a salt. Where two headings read alike, the source gives them in different places.

With `NS(=O)(=O)c1cc2c(cc1C(F)(F)F)NC(Cc1ccccc1)NS2(=O)=O` (stereo not shown) [Bendroflumethiazide], the fold induction at 50 µM is 1.3 in assay [1] (cutoff for positive-scoring molecules 3-fold increase, read-out: AK-based Prestwick Library Screening Results, A. baumannii (fold increase in extracellular AK activity)); 1.1 in the assay with P. aeruginosa (cutoff for positive-scoring molecules 3-fold increase, read-out: AK-based Prestwick Library Screening Results, P. aeruginosa (fold increase in extracellular AK activity)); 1.2 in the assay with E. faecium (cutoff for positive-scoring molecules 3-fold increase, read-out: AK-based Prestwick Library Screening Results, E. faecium (fold increase in extracellular AK activity)); 1.5 with E. cloacae (cutoff for positive-scoring molecules 3-fold increase, read-out: AK-based Prestwick Library Screening Results, E. cloacae (fold increase in extracellular AK activity)); 1.3 in the assay on E. coli (cutoff for positive-scoring molecules 3-fold increase, read-out: AK-based Prestwick Library Screening Results, E. coli (fold increase in extracellular AK activity)); 1.1 in the assay with K. pneumoniae (cutoff for positive-scoring molecules 3-fold increase, read-out: AK-based Prestwick Library Screening Results, K. pneumoniae (fold increase in extracellular AK activity)). Further, the fold induction at 50 µM in assay [2] (cutoff for positive-scoring molecules 3-fold increase, read-out: AK-based Prestwick Library Screening Results, S. aureus (fold increase in extracellular AK activity)) is 1.3.
As for `CCC1(C)CC(=O)NC(=O)C1` [Bemegride], the fold induction at 50 µM in assay [1] (planktonic, […], read-out: AK-based Prestwick Library Screening Results, A. baumannii (fold increase in extracellular AK activity)) was 0.7; in the assay with P. aeruginosa (planktonic, […], read-out: AK-based Prestwick Library Screening Results, P. aeruginosa (fold increase in extracellular AK activity)), 0.6; in the assay on E. faecium (planktonic, […], read-out: AK-based Prestwick Library Screening Results, E. faecium (fold increase in extracellular AK activity)), 0.9; with E. cloacae (planktonic, […], read-out: AK-based Prestwick Library Screening Results, E. cloacae (fold increase in extracellular AK activity)), 0.6; with E. coli (planktonic, […], read-out: AK-based Prestwick Library Screening Results, E. coli (fold increase in extracellular AK activity)), 0.6; in the assay with K. pneumoniae (planktonic, […], read-out: AK-based Prestwick Library Screening Results, K. pneumoniae (fold increase in extracellular AK activity)), 0.6. Also, in assay [2] (planktonic, […], read-out: AK-based Prestwick Library Screening Results, S. aureus (fold increase in extracellular AK activity)), the fold induction at 50 µM was found to be 0.7.
On to `CNC(=C[N+](=O)[O-])NCCSCc1ccc(CN(C)C)o1` [Ranitidine hydrochloride], for which the fold induction at 50 µM came to 1.1 in assay [1] (planktonic A. baumannii, 384-well, cutoff for positive-scoring molecules 3-fold increase, read-out: AK-based Prestwick Library Screening Results: A. baumannii (increase in extracellular AK activity)); 1.3 in the assay with P. aeruginosa (planktonic P. aeruginosa, 384-well, cutoff for positive-scoring molecules 3-fold increase, read-out: AK-based Prestwick Library Screening Results: P. aeruginosa (increase in extracellular AK activity)); 1.1 with E. faecium (planktonic E. faecium, 384-well, cutoff for positive-scoring molecules 3-fold increase, read-out: AK-based Prestwick Library Screening Results: E. faecium (increase in extracellular AK activity)); 1.5 in the assay with E. cloacae (planktonic E. cloacae, 384-well, cutoff for positive-scoring molecules 3-fold increase, read-out: AK-based Prestwick Library Screening Results: E. cloacae (increase in extracellular AK activity)); 1.4 in the assay on E. coli (planktonic E. coli, 384-well, cutoff for positive-scoring molecules 3-fold increase, read-out: AK-based Prestwick Library Screening Results: E. coli (increase in extracellular AK activity)); 0.9 with K. pneumoniae (planktonic K. pneumoniae, 384-well, cutoff for positive-scoring molecules 3-fold increase, read-out: AK-based Prestwick Library Screening Results: K. pneumoniae (increase in extracellular AK activity)). Further, the fold induction at 50 µM in assay [2] (planktonic S. aureus, 384-well, cutoff for positive-scoring molecules 3-fold increase, read-out: AK-based Prestwick Library Screening Results: S. aureus (increase in extracellular AK activity)) came out at 1.2.
For the compound `CC(C)C(=O)Nc1ccc([N+](=O)[O-])c(C(F)(F)F)c1` [Flutamide], the fold induction at 50 µM in assay [1] (384-well format, […], read-out: AK-based Prestwick Library Screening Results, A. baumannii (increase in extracellular AK activity)) worked out at 0.7; in the assay with P. aeruginosa (384-well format, […], read-out: AK-based Prestwick Library Screening Results, P. aeruginosa (increase in extracellular AK activity)), 0.8; in the assay with E. faecium (384-well format, […], read-out: AK-based Prestwick Library Screening Results, E. faecium (increase in extracellular AK activity)) it was 1; in the assay on E. cloacae (384-well format, […], read-out: AK-based Prestwick Library Screening Results, E. cloacae (increase in extracellular AK activity)), 0.7; in the assay on E. coli (384-well format, […], read-out: AK-based Prestwick Library Screening Results, E. coli (increase in extracellular AK activity)) it was 0.7; in the assay on K. pneumoniae (384-well format, […], read-out: AK-based Prestwick Library Screening Results, K. pneumoniae (increase in extracellular AK activity)), 0.6. In addition, the fold induction at 50 µM in assay [2] (384-well format, […], read-out: AK-based Prestwick Library Screening Results, S. aureus (increase in extracellular AK activity)) was 0.4.
For the compound `CCOC(=O)C1=C(C)NC(C)=C(C(=O)OC)C1c1cccc([N+](=O)[O-])c1` (stereo not shown) [Nitrendipine], the fold induction at 50 µM stood at 0.9 in assay [1] (planktonic, cutoff for positive-scoring molecules 3-fold increase, read-out: AK-based Prestwick Library Screening Results, A. baumannii (fold increase in extracellular AK activity)); 0.9 in the assay on P. aeruginosa (planktonic, cutoff for positive-scoring molecules 3-fold increase, read-out: AK-based Prestwick Library Screening Results, P. aeruginosa (fold increase in extracellular AK activity)); 0.9 in the assay on E. faecium (planktonic, cutoff for positive-scoring molecules 3-fold increase, read-out: AK-based Prestwick Library Screening Results, E. faecium (fold increase in extracellular AK activity)); 1.4 in the assay on E. cloacae (planktonic, cutoff for positive-scoring molecules 3-fold increase, read-out: AK-based Prestwick Library Screening Results, E. cloacae (fold increase in extracellular AK activity)); 0.8 in the assay with E. coli (planktonic, cutoff for positive-scoring molecules 3-fold increase, read-out: AK-based Prestwick Library Screening Results, E. coli (fold increase in extracellular AK activity)); 0.8 in the assay on K. pneumoniae (planktonic, cutoff for positive-scoring molecules 3-fold increase, read-out: AK-based Prestwick Library Screening Results, K. pneumoniae (fold increase in extracellular AK activity)). Further, the fold induction at 50 µM in assay [2] (planktonic, cutoff for positive-scoring molecules 3-fold increase, read-out: AK-based Prestwick Library Screening Results, S. aureus (fold increase in extracellular AK activity)) turned out to be 0.4.
With `C=C(C)[C@@H]1CC[C@]2(C(=O)O)CC[C@]3(C)[C@H](CC[C@@H]4[C@@]5(C)CC[C@H](O)C(C)(C)[C@@H]5CC[C@]43C)[C@@H]12` [Betulinic acid], the fold induction at 50 µM was determined as 0.6 in assay [1] (planktonic A. baumannii, cutoff for positive-scoring molecules 3-fold increase, read-out: AK-based Prestwick Library Screening Results, A. baumannii (increase in extracellular AK activity)); 0.6 in the assay on P. aeruginosa (planktonic P. aeruginosa, cutoff for positive-scoring molecules 3-fold increase, read-out: AK-based Prestwick Library Screening Results, P. aeruginosa (increase in extracellular AK activity)); 0.9 in the assay with E. faecium (planktonic E. faecium, cutoff for positive-scoring molecules 3-fold increase, read-out: AK-based Prestwick Library Screening Results, E. faecium (increase in extracellular AK activity)); 0.7 in the assay on E. cloacae (planktonic E. cloacae, cutoff for positive-scoring molecules 3-fold increase, read-out: AK-based Prestwick Library Screening Results, E. cloacae (increase in extracellular AK activity)); 0.6 in the assay with E. coli (planktonic E. coli, cutoff for positive-scoring molecules 3-fold increase, read-out: AK-based Prestwick Library Screening Results, E. coli (increase in extracellular AK activity)); 0.5 in the assay with K. pneumoniae (planktonic K. pneumoniae, cutoff for positive-scoring molecules 3-fold increase, read-out: AK-based Prestwick Library Screening Results, K. pneumoniae (increase in extracellular AK activity)). In assay [2] (planktonic S. aureus, cutoff for positive-scoring molecules 3-fold increase, read-out: AK-based Prestwick Library Screening Results, S. aureus (increase in extracellular AK activity)), the fold induction at 50 µM was determined as 0.1.
Take `CCC[C@H](N[C@@H](C)C(=O)N1[C@H](C(=O)O)C[C@@H]2CCCC[C@@H]21)C(=O)OCC` [Perindopril]: the fold induction at 50 µM in assay [1] (planktonic A. baumannii, positive cutoff 3-fold increase, read-out: AK-based Prestwick library screening result, A. baumannii (fold increase in extracellular AK activity)) stood at 1.4; in the assay with P. aeruginosa (planktonic P. aeruginosa, positive cutoff 3-fold increase, read-out: AK-based Prestwick library screening result, P. aeruginosa (fold increase in extracellular AK activity)), 1.2; with E. faecium (planktonic E. faecium, positive cutoff 3-fold increase, read-out: AK-based Prestwick library screening result, E. faecium (fold increase in extracellular AK activity)), 1; with E. cloacae (planktonic E. cloacae, positive cutoff 3-fold increase, read-out: AK-based Prestwick library screening result, E. cloacae (fold increase in extracellular AK activity)), 1.3; with E. coli (planktonic E. coli, positive cutoff 3-fold increase, read-out: AK-based Prestwick library screening result, E. coli (fold increase in extracellular AK activity)) it was 1.2; in the assay with K. pneumoniae (planktonic K. pneumoniae, positive cutoff 3-fold increase, read-out: AK-based Prestwick library screening result, K. pneumoniae (fold increase in extracellular AK activity)), 1.1. Also, the fold induction at 50 µM in assay [2] (planktonic S. aureus, positive cutoff 3-fold increase, read-out: AK-based Prestwick library screening result, S. aureus (fold increase in extracellular AK activity)) worked out at 1.1.

The values above are taken from patent publication US10004701B2, “Methods and compositions for treating infection” (UNIVERSITY OF ROCHESTER, priority 2012, dated 2018).
